According to patent US8993585B2, “Cyclic amine substituted pyrimidinediamines as PKC inhibitors” (Rigel Pharmaceuticals, Inc., priority 2007, dated 2015):

Tests used:
PKC theta = target: T1, PKC theta (Homo sapiens, UniProt Q04759); test: PKC assay, fluorescence polarization (Example 2), PKC theta; format: biochemical; conditions: 5 μM ATP
T1 construct: purchased Upstate Biotechnologies, Temecula, CA 14-444
Method: The inhibition of PKC activity was measured by monitoring the production of phosphorylated peptide by fluorescence polarization at different concentrations of the inhibitor. Reactions were carried out in 96-well plate format with a total volume of 20 μL containing 20 mM HEPES, pH 7.4, 5 mM MgCl2, 0.2 mM CaCl2, 1 mM DTT, 0.02% Brij-35, 0.1 mg/mL phosphatidylserine, 0.02 mg/mL dioleoyl-sn-glycerol and 5 μM each of ATP and the peptide substrate. Compounds were first diluted serially in DMSO and then transferred to a solution containing the above concentrations of HEPES, MgCl2, CaCl2, DTT, and Brij-35 to yield 5× compound solutions in 2% DMSO, which was then added to the reaction solution. Reactions were initiated by the addition of PKC at a typical concentration as described in Table VI, and then allowed to incubate at room temperature for 20 min. At the end of this time, a combination of quench (EDTA) and detection (peptide tracer and antibody) reagents was added using the protocol of Invitrogen P2748.

Human primary T cells = test: IL-2 ELISA, Human Primary T Cell, Anti-CD3+CD28+ (Example 3); format: cell-based; conditions: Homo sapiens, T-cell, 24 h, anti-CD3+CD28 stimulation
Outline: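 Human primary T cells, 100,000 per well, were pre-incubated with compound in Yssel's medium for 1 h at 37 °C. The counter-assay used 0.5 ng/ml PMA with 0.1 uM ionomycin final.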

T1 sequence (Q04759 whole entry): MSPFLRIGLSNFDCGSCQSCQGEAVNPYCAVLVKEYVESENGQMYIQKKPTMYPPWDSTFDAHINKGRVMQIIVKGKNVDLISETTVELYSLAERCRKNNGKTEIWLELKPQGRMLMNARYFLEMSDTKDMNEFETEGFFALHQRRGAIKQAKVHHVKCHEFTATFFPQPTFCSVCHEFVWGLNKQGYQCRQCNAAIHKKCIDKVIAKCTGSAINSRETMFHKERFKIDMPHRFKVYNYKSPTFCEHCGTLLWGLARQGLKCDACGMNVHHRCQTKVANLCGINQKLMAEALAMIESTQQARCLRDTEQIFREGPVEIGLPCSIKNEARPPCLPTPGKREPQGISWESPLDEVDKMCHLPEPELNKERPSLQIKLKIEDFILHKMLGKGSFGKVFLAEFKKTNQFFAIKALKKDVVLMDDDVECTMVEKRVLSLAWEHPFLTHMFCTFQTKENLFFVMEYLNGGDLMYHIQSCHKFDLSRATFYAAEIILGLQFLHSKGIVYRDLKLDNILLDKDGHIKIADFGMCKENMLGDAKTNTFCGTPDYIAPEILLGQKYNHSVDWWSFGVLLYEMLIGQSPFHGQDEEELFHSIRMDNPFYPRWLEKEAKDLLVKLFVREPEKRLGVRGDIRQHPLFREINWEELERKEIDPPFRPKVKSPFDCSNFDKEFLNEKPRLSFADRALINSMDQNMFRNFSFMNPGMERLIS

Row | Compound | IC50 (PKC theta) | IC50 (Human primary T cells)
1 | CN1CCN(c2ccc(Nc3ncc(F)c(NC4CC(C)(C)N(C)C(C)(C)C4)n3)cc2C(F)(F)F)CC1 [Compound I-5] | 5 nM | 86 nM
2 | COc1ccc(Nc2ncc(F)c(NC3CC(C)(C)N(C)C(C)(C)C3)n2)cc1Br [Compound I-159] | 7.29 nM | 296 nM
3 | CN1C(C)(C)CC(Nc2nc(Nc3ccc(-c4cccnc4)c(C#N)c3)ncc2F)CC1(C)C [Compound I-186] | 1.41 nM | 92.4 nM
4 | Cc1cc(Nc2ncc(F)c(NC3CC(C)(C)N(C)C(C)(C)C3)n2)ccc1-c1ccncc1 [Compound I-120] | 29.5 nM | 366 nM
5 | Cc1ccc(Nc2ncc(F)c(NC3CC(C)(C)N(C)C(C)(C)C3)n2)cc1S(N)(=O)=O [Compound I-11] | 52 nM | 1570 nM
6 | CN1C(C)(C)CC(Nc2nc(Nc3cccc(-c4cc5ccccc5s4)c3)ncc2F)CC1(C)C [Compound I-106] | 239 nM | 527 nM
7 | COc1ccc(Nc2ncc(F)c(NC3CC(C)(C)N(C)C(C)(C)C3)n2)cc1Cl [Compound I-20] | 5 nM | 113 nM
8 | CN1CCC(Nc2nc(Nc3cccc(C#N)c3)ncc2F)CC1 [III-2, N2-(3-Cyano)phenyl-5-fluoro-N4-(1-methylpiperidin-4-yl)-2,4-pyrimidinediamine] | 130 nM | 1060 nM
9 | CN1C(C)(C)CC(Nc2nc(Nc3ccc(N4CCN(S(C)(=O)=O)CC4)c(C#N)c3)ncc2Cl)CC1(C)C [Compound I-175] | 7.11 nM | 205 nM
10 | CN1C(C)(C)CC(Nc2nc(Nc3ccc(N4CCN(S(=O)(=O)C5CC5)CC4)c(Cl)c3)ncc2F)CC1(C)C [Compound I-174] | 10.7 nM | 270 nM
11 | CN1C(C)(C)CC(Nc2nc(Nc3ccc(NC(=O)c4ccco4)c(Cl)c3)ncc2F)CC1(C)C [Compound I-339] | 31.8 nM | 188 nM
12 | CCN1CCN(c2ccc(Nc3ncc(F)c(NC4CC(C)(C)N(C)C(C)(C)C4)n3)cn2)CC1 [Compound I-6] | 180 nM | 1690 nM
13 | CN1C(C)(C)CC(Nc2nc(Nc3ccc(N4CCN(S(C)(=O)=O)CC4)c(C(F)(F)F)c3)ncc2F)CC1(C)C [Compound I-244] | 34.1 nM | 248 nM
14 | CN1CCN(c2cccc(Nc3ncc(F)c(NC4CC(C)(C)N(C)C(C)(C)C4)n3)c2)CC1 [Compound I-2] | 407 nM | 1570 nM
15 | CN1C(C)(C)CC(Nc2nc(Nc3cc(-c4cnn(C)c4)cc(C(F)(F)F)c3)ncc2F)CC1(C)C [Compound I-204] | 82.9 nM | 440 nM
16 | CC(=O)N1C(C)CN(c2cc(Nc3ncc(F)c(NC4CC(C)(C)N(C)C(C)(C)C4)n3)ccc2Cl)CC1C (stereo not drawn) [Compound I-251] | 379 nM | 384 nM
17 | CN1C(C)(C)CC(Nc2nc(Nc3ccc(-c4cccnc4)c(Cl)c3)ncc2F)CC1(C)C [Compound I-154] | 3.81 nM | 261 nM
18 | CN1C(C)(C)CC(Nc2nc(Nc3ccc(-c4ccncc4)cc3)ncc2F)CC1(C)C [Compound I-123] | 80.8 nM | 872 nM
19 | CN1C(C)(C)CC(Nc2nc(Nc3ccc(Cl)c(C#N)c3)ncc2F)CC1(C)C [Compound I-163] | 3.8 nM | 290 nM
20 | CN1CCC(Nc2nc(Nc3ccc(N4CCN(C)CC4)c(Cl)c3)ncc2F)CC1 [III-4, N2-[3-Chloro-4-(4-methylpiperazino)]phenyl-5-fluoro-N4-(1-methylpiperidin-4-yl)-2,4-pyrimidinediamine] | 32.4 nM | 1680 nM
21 | Cc1cc(Nc2ncc(F)c(NC3CC(C)(C)N(C)C(C)(C)C3)n2)ccc1N1CCN(C)CC1 [Compound I-4] | 30 nM | 254 nM

Row | Compound | IC50 (PKC theta) | IC50 (Human primary T cells)
22 | Cc1cc(N2CCN(C)CC2)ncc1Nc1ncc(F)c(NC2CC(C)(C)N(C)C(C)(C)C2)n1 [Compound I-8] | 213 nM | 5810 nM
23 | CN1C(C)(C)CC(Nc2nc(Nc3ccc(N4CCN(S(C)(=O)=O)CC4)c(C#N)c3)ncc2F)CC1(C)C [Compound I-164] | 2.16 nM | 223 nM
24 | CN1C(C)(C)CC(Nc2nc(Nc3ccc(N4CCN(S(C)(=O)=O)CC4)c(OC(F)F)c3)ncc2F)CC1(C)C [Compound I-238] | 3.94 nM | 115 nM
25 | CN1C(C)(C)CC(Nc2nc(Nc3ccc(S(N)(=O)=O)cc3)ncc2F)CC1(C)C [Compound I-9] | 86 nM | 3440 nM
26 | CC1CN(c2cc(Nc3ncc(F)c(NC4CC(C)(C)N(C)C(C)(C)C4)n3)ccc2Cl)CC(C)N1C (stereo not drawn) [Compound I-250] | 1040 nM | 1500 nM
27 | CN1C(C)(C)CC(Nc2nc(Nc3ccc(-c4cnn(C)c4)c(C(F)(F)F)c3)ncc2F)CC1(C)C [Compound I-126] | 12 nM | 243 nM
28 | CN1C(C)(C)CC(Nc2nc(Nc3ccc(-c4ccoc4)cc3)ncc2F)CC1(C)C [Compound I-125] | 111 nM | 892 nM
29 | CN1C(C)(C)CC(Nc2nc(Nc3cc(-c4ccoc4)cc(C(F)(F)F)c3)ncc2F)CC1(C)C [Compound I-203] | 92 nM | 427 nM
30 | CCN1C(=O)C(C)(C)Oc2cc(Nc3ncc(OC)c(NC4CC(C)(C)N(C)C(C)(C)C4)n3)ccc21 [II-130] | 10.1 nM | 720 nM
31 | CN1C(C)(C)CC(Nc2nc(Nc3ccc(N4CCN(S(=O)(=O)C5CC5)CC4)c(C(F)(F)F)c3)ncc2F)CC1(C)C [Compound I-173] | 26.6 nM | 377 nM
32 | N#Cc1cccc(Nc2ncc(F)c(NC3CCN(CCO)CC3)n2)c1 [III-6, N2-(3-Cyano)phenyl-5-fluoro-N4-[1-(2-hydroxyethyl)piperidin-4-yl]-2,4-pyrimidinediamine] | 255 nM | 1560 nM
33 | CN1CCN(c2ccc(Nc3ncc(F)c(NC4CC(C)(C)N(C)C(C)(C)C4)n3)cc2Cl)CC1 [Compound I-3] | 5 nM | 108 nM
34 | CN1C(C)(C)CC(Nc2nc(Nc3cc(Br)cc(C(F)(F)F)c3)ncc2F)CC1(C)C [Compound I-162] | 68.6 nM | 553 nM
35 | Cc1ccc(Nc2ncc(F)c(NC3CC(C)(C)N(C)C(C)(C)C3)n2)cc1Br [Compound I-160] | 32.6 nM | 202 nM
36 | CN1CCN(c2ccc(Nc3ncc(F)c(NC4CC(C)(C)N(C)C(C)(C)C4)n3)cc2)CC1 [Compound I-1] | 226 nM | 3020 nM
37 | CCCN1CCN(c2ccc(Nc3ncc(F)c(NC4CC(C)(C)N(C)C(C)(C)C4)n3)cc2Cl)CC1 [Compound I-249] | 13.7 nM | 136 nM
38 | CC1(C)CC(Nc2nc(Nc3ccc4c(c3)oc(=O)n4CC3CC3)ncc2C#N)CC(C)(C)N1 [II-97] | 2.5 nM | 500 nM
39 | CN1C(C)(C)CC(Nc2nc(Nc3cccc(S(N)(=O)=O)c3)ncc2F)CC1(C)C [Compound I-10] | 70 nM | 1880 nM
40 | COc1ccc(Nc2ncc(F)c(NC3CC(C)(C)NC(C)(C)C3)n2)cc1Cl [Compound I-254] | 53.9 nM | 488 nM
41 | CN1C(C)(C)CC(Nc2nc(Nc3cccc(C#N)c3)ncc2F)CC1(C)C [Compound I-26] | 3 nM | 59 nM
42 | CN1CCN(c2ccc(Nc3ncc(F)c(NC4CCN(CCO)CC4)n3)cc2C(F)(F)F)CC1 [III-7, 5-Fluoro-N4-[1-(2-hydroxyethyl)piperidin-4-yl]-N2-[4-(4-methylpiperazino)-3-trifluoromethyl]phenyl-2,4-pyrimidinediamine] | 254 nM | 1140 nM
